Test system: L. salmonis
Test: Example 2: in-feed treatment in fresh water hatchery, natural sea louse infestation after sea transfer, L. salmonis counts
Assay type: in vivo, Lepeophtheirus salmonis on Atlantic salmon (Salmo salar)
Details: for L. salmonis: all stages, Treated, counts / L. salmonis: pre- & adults, Efficacy / L. salmonis: pre- & adults, Treated, counts: fresh water
Description: Three groups of 400 Atlantic salmon (Salmo salar) of average weight 80 g were treated with medicated pellets containing lufenuron to deliver doses equivalent to 1, 5 and 10 mg/kg/day over 7 consecutive days. A fourth group containing 400 salmon of average weight 80 g was added to the study as a non-treated control group. The medicated pellets were prepared by coating commercially available fish feed pellets with a lufenuron-containing pre-mix to reach a content of 0.005, 0.025 and 0.05% (w/w) lufenuron in the fish feed. The groups were randomized and the identity of the feeds blinded to the site staff. The treatment was undertaken in a fresh water hatchery and the fish transferred to sea water within 7 days of completion of treatment.
On transfer to sea each group was split into two cages and all cage groups were maintained in separate randomized cages.
After treatment, the fish were exposed to natural sea louse infestation. During the study the temperature varied between 1.9 and 8.1° C. Fish weights were assessed at allocation to cages, again approximately 2 weeks after the sea transfer and then at 4 weekly intervals. Sea louse numbers were assessed at approximately 2 weeks after the sea transfer and then at 4 weekly intervals. The numbers of chalimus, pre-adults and adult male, mobile and mature female L. salmonis were recorded for each fish. No distinction was made between chalimus stages I-IV or between pre-adult and adult male stages. Total numbers of Caligus elongatus were also recorded but no significant infestation was established to enable an assessment of efficacy.
Efficacy was calculated using the formula:
% Efficacy=100−(100×mean of treatment group/mean of control).

[1] = 1 mg/kg/day 7 days in-feed, 15 days post sea transfer
[2] = 1 mg/kg/day 7 days in-feed, 42 days post sea transfer
[3] = 1 mg/kg/day 7 days in-feed, 76 days post sea transfer
[4] = 1 mg/kg/day 7 days in-feed, 98 days post sea transfer
[5] = 1 mg/kg/day 7 days in-feed, 125 days post sea transfer
[6] = 1 mg/kg/day 7 days in-feed, 154 days post sea transfer
[7] = 5 mg/kg/day 7 days in-feed, 15 days post sea transfer
[8] = 5 mg/kg/day 7 days in-feed, 76 days post sea transfer
[9] = 5 mg/kg/day 7 days in-feed, 98 days post sea transfer
[10] = 5 mg/kg/day 7 days in-feed, 125 days post sea transfer
[11] = 5 mg/kg/day 7 days in-feed, 154 days post sea transfer
[12] = 10 mg/kg/day 7 days in-feed, 15 days post sea transfer
[13] = 10 mg/kg/day 7 days in-feed, 76 days post sea transfer
[14] = 10 mg/kg/day 7 days in-feed, 98 days post sea transfer
[15] = 10 mg/kg/day 7 days in-feed, 125 days post sea transfer
[16] = 10 mg/kg/day 7 days in-feed, 154 days post sea transfer

O=C(NC(=O)c1c(F)cccc1F)Nc1cc(Cl)c(OC(F)(F)C(F)C(F)(F)F)cc1Cl (stereo not shown) [lufenuron, N-{[2,5-Dichlor-4-(1,1,2,3,3,3-hexafluorpropoxy)phenyl]carbamoyl}-2,6-difluorbenzamid]
L. salmonis: all stages, Treated, counts [1]: 0 | L. salmonis: pre- & adults, Efficacy [1]: 100% | L. salmonis: pre- & adults, Treated, counts [1]: 0 | L. salmonis: all stages, Treated, counts [2]: 0 | L. salmonis: pre- & adults, Efficacy [2]: 100% | L. salmonis: pre- & adults, Treated, counts [2]: 0 | L. salmonis: all stages, Treated, counts [3]: 0.1 | L. salmonis: pre- & adults, Efficacy [3]: 96.2% | L. salmonis: pre- & adults, Treated, counts [3]: 0.1 | L. salmonis: all stages, Treated, counts [4]: 0.8 | L. salmonis: pre- & adults, Efficacy [4]: 83.9% | L. salmonis: pre- & adults, Treated, counts [4]: 0.45 | L. salmonis: all stages, Treated, counts [5]: 0.4 | L. salmonis: pre- & adults, Efficacy [5]: 92.9% | L. salmonis: pre- & adults, Treated, counts [5]: 0.3 | L. salmonis: all stages, Treated, counts [6]: 0.3 | L. salmonis: pre- & adults, Efficacy [6]: 92.8% | L. salmonis: pre- & adults, Treated, counts [6]: 0.3 | L. salmonis: all stages, Treated, counts [7]: 0.1 | L. salmonis: pre- & adults, Efficacy [7]: 100% | L. salmonis: pre- & adults, Treated, counts [7]: 0 | L. salmonis: all stages, Treated, counts [8]: 0 | L. salmonis: pre- & adults, Efficacy [8]: 100% | L. salmonis: pre- & adults, Treated, counts [8]: 0 | L. salmonis: all stages, Treated, counts [9]: 0.1 | L. salmonis: pre- & adults, Efficacy [9]: 96.4% | L. salmonis: pre- & adults, Treated, counts [9]: 0.1 | L. salmonis: all stages, Treated, counts [10]: 0 | L. salmonis: pre- & adults, Efficacy [10]: 100% | L. salmonis: pre- & adults, Treated, counts [10]: 0 | L. salmonis: all stages, Treated, counts [11]: 0 | L. salmonis: pre- & adults, Efficacy [11]: 100% | L. salmonis: pre- & adults, Treated, counts [11]: 0 | L. salmonis: all stages, Treated, counts [12]: 0.5 | L. salmonis: pre- & adults, Efficacy [12]: 100% | L. salmonis: pre- & adults, Treated, counts [12]: 0 | L. salmonis: all stages, Treated, counts [13]: 0 | L. salmonis: pre- & adults, Efficacy [13]: 100% | L. salmonis: pre- & adults, Treated, counts [13]: 0 | L. salmonis: all stages, Treated, counts [14]: 0 | L. salmonis: pre- & adults, Efficacy [14]: 100% | L. salmonis: pre- & adults, Treated, counts [14]: 0 | L. salmonis: all stages, Treated, counts [15]: 0 | L. salmonis: pre- & adults, Efficacy [15]: 100% | L. salmonis: pre- & adults, Treated, counts [15]: 0 | L. salmonis: all stages, Treated, counts [16]: 0 | L. salmonis: pre- & adults, Efficacy [16]: 100% | L. salmonis: pre- & adults, Treated, counts [16]: 0 | protected the fish against sea louse infestation until at least (time post-treatment) (Example 2, 1 mg/kg treatment): five | efficacy over the protection period (Example 2, 1 mg/kg treatment, until at least five month post-treatment): approximately 90% | protected the fish against sea louse infestation until (time post-treatment) (Example 2, 5 mg/kg treatment, study continues): 5 months | protected the fish against sea louse infestation up to (time post-treatment) (Example 2, 10 mg/kg treatment, study continues): 5 months

Source: US20150125509A1, “TREATMENT OF FISH POPULATIONS WITH LUFENURON” (priority 2012, published 2015)
